Data from paper PMC5775428, “Towards an experimental classification system for membrane active peptides” (Scientific Reports, 2018).
Like-named read-outs stand apart in the source and are kept apart here.

Experiments:
[1] = test system: Bacillus cereus
Procedure: (§1) Antimicrobial activity was tested against three categories of human and plant pathogenic microorganisms: Gram-positive (Bacillus subtilis, Bacillus cereus, Staphylococcus aureus), Gram-negative (Escherichia coli, Pseudomonas aeruginosa, Erwinia carotovora, Pseudomonas syringae pv. tabaci, Xanthomonas campestris pv. citri) and yeasts (Candida albicans, Cryptococcus neoformans), as previously reported. […] The full list of peptide MICs was published in an accompanying paper, and is available in the current publication as supplementary dataset (Supplementary dataset 01).
(§2) The determination of the minimum inhibitory concentration (MIC) of peptides was performed as described in “Encrypted Antimicrobial Peptides from Plant Proteins”[7]. Briefly, MICs were determined following protocols M7-A10 and M27-A3 from Clinical & Laboratory Standards Institute (CLSI) for bacteria and yeasts, respectively. Different concentrations of IAPs (0.5 to 256 μM) were tested against several microorganisms in a final volume of 100 µL. Three biological repetitions, with 2 technical replicates each, were performed for each test, on polystyrene flat-bottom 96 wells microplates. The minimum inhibitory concentration (MIC) was defined as the concentration at which no cells were detected when visualized by optical microscopy. Please refer to the literature[7] for further details of the microbiological assays.

[2] = test system: Pseudomonas syringae pv. tabaci; conditions: Pseudomonas syringae pv. tabaci; for Minimum inhibitory concentration, Average: average of triplicates
Procedure: as §1, §2

[3] = test system: Candida albicans; conditions: Candida albicans; for Minimum inhibitory concentration, Average: average of triplicates
Procedure: as §1, §2

[4] = test system: Xanthomonas campestris; conditions: for Minimum inhibitory concentration, Average: average of triplicates
Procedure: as §1, §2

[5] = test system: Pseudomonas aeruginosa
Procedure: as §1, §2

[6] = test system: Bacillus subtilis; conditions: Bacillus subtilis; for Minimum inhibitory concentration, Average: average of triplicates
Procedure: as §1, §2

[7] = test system: Cryptococcus neoformans; conditions: Cryptococcus neoformans; for Minimum inhibitory concentration, Average: average of triplicates
Procedure: as §1, §2

[8] = test system: Staphylococcus aureus; conditions: Staphylococcus aureus; for Minimum inhibitory concentration, Average: average of triplicates
Procedure: as §1, §2

[9] = test system: Escherichia coli; conditions: Escherichia coli; for Minimum inhibitory concentration, Average: average of triplicates
Procedure: as §1, §2

[10] = test system: Erwinia carotovora; conditions: Erwinia carotovora; for Minimum inhibitory concentration, Average: average of triplicates
Procedure: as §1, §2

[11] = Bacillus cereus, CLSI M7-A10, triplicate 1
[12] = Bacillus cereus, average of triplicates
[13] = CLSI M27-A3, 0.5 to 256 μM tested, triplicate 1, also published in ref 7
[14] = Pseudomonas aeruginosa, CLSI M7-A10, triplicate 1
[15] = Pseudomonas aeruginosa, average of triplicates
[16] = Pseudomonas aeruginosa, triplicate 2
[17] = Pseudomonas aeruginosa, triplicate 3

Sequence | Minimum inhibitory concentration ([2]; CLSI M7-A10, triplicate 1) [µM] | Minimum inhibitory concentration, Average [2] [µM] | Minimum inhibitory concentration ([2]; triplicate 2) [µM] | Minimum inhibitory concentration ([2]; triplicate 3) [µM] | Minimum inhibitory concentration [3, 13] [µM] | Minimum inhibitory concentration, Average [3] [µM] | Minimum inhibitory concentration ([3]; triplicate 2) [µM] | Minimum inhibitory concentration ([3]; triplicate 3) [µM] | Minimum inhibitory concentration ([4]; CLSI M7-A10, triplicate 1) [µM] | Minimum inhibitory concentration, Average [4] [µM] | Minimum inhibitory concentration ([4]; triplicate 2) [µM] | Minimum inhibitory concentration ([4]; triplicate 3) [µM] | Minimum inhibitory concentration ([6]; CLSI M7-A10, triplicate 1) [µM] | Minimum inhibitory concentration, Average [6] [µM] | Minimum inhibitory concentration ([6]; triplicate 2) [µM] | Minimum inhibitory concentration ([6]; triplicate 3) [µM] | Minimum inhibitory concentration ([7]; CLSI M27-A3, triplicate 1) [µM] | Minimum inhibitory concentration, Average [7] [µM] | Minimum inhibitory concentration ([7]; triplicate 2) [µM] | Minimum inhibitory concentration ([7]; triplicate 3) [µM] | other results
GAKLAKKQVRALGKFFSF [At03] | 8 | 8.0 | 8 | 8 | 128 | 128.0 | 128 | 128 | 32 | 32.0 | 32 | 32 | 8 | 8.0 | 8 | 8 | 64 | 64.0 | 64 | 64 | Minimum inhibitory concentration [1, 11]: 512 µM; Minimum inhibitory concentration, Average [1, 12]: 512.0 µM; Minimum inhibitory concentration ([1]; Bacillus cereus, triplicate 2): 512 µM; Minimum inhibitory concentration ([1]; Bacillus cereus, triplicate 3): 512 µM; Minimum inhibitory concentration [5, 14]: 512 µM; Minimum inhibitory concentration, Average [5, 15]: 512.0 µM; Minimum inhibitory concentration [5, 16]: 512 µM; Minimum inhibitory concentration [5, 17]: 512 µM; Minimum inhibitory concentration ([8]; CLSI M7-A10, triplicate 1): 512 µM; Minimum inhibitory concentration, Average [8]: 512.0 µM; Minimum inhibitory concentration ([8]; triplicate 2): 512 µM; Minimum inhibitory concentration ([8]; triplicate 3): 512 µM; Minimum inhibitory concentration ([9]; CLSI M7-A10, triplicate 1): 16 µM; Minimum inhibitory concentration, Average [9]: 16.0 µM; Minimum inhibitory concentration ([9]; triplicate 2): 16 µM; Minimum inhibitory concentration ([9]; triplicate 3): 16 µM; Minimum inhibitory concentration ([10]; CLSI M7-A10, triplicate 1): 32 µM; Minimum inhibitory concentration, Average [10]: 32.0 µM; Minimum inhibitory concentration ([10]; triplicate 2): 32 µM; Minimum inhibitory concentration ([10]; triplicate 3): 32 µM
KVLSKVHTLLKAVLAL [At02] | 4 | 4.0 | 4 | 4 | 8 | 8.0 | 8 | 8 | 1 | 1.0 | 1 | 1 | 1 | 1.0 | 1 | 1 | 4 | 4.0 | 4 | 4 | Minimum inhibitory concentration [1, 11]: 2 µM; Minimum inhibitory concentration, Average [1, 12]: 3.3 µM; Minimum inhibitory concentration ([1]; Bacillus cereus, triplicate 2): 4 µM; Minimum inhibitory concentration ([1]; Bacillus cereus, triplicate 3): 4 µM; Minimum inhibitory concentration [5, 14]: 4 µM; Minimum inhibitory concentration, Average [5, 15]: 5.3 µM; Minimum inhibitory concentration [5, 16]: 4 µM; Minimum inhibitory concentration [5, 17]: 8 µM; Minimum inhibitory concentration ([8]; CLSI M7-A10, triplicate 1): 4 µM; Minimum inhibitory concentration, Average [8]: 4.0 µM; Minimum inhibitory concentration ([8]; triplicate 2): 4 µM; Minimum inhibitory concentration ([8]; triplicate 3): 4 µM; Minimum inhibitory concentration ([9]; CLSI M7-A10, triplicate 1): 2 µM; Minimum inhibitory concentration, Average [9]: 2.0 µM; Minimum inhibitory concentration ([9]; triplicate 2): 2 µM; Minimum inhibitory concentration ([9]; triplicate 3): 2 µM; Minimum inhibitory concentration ([10]; CLSI M7-A10, triplicate 1): 1 µM; Minimum inhibitory concentration, Average [10]: 1.0 µM; Minimum inhibitory concentration ([10]; triplicate 2): 1 µM; Minimum inhibitory concentration ([10]; triplicate 3): 1 µM
FFGHIWHGARTLFRDVFA [Cs02] | 4 | 4.0 | 4 | 4 | 32 | 32.0 | 32 | 32 | 32 | 32.0 | 32 | 32 | 2 | 3.3 | 4 | 4 | 32 | 32.0 | 32 | 32 | Minimum inhibitory concentration [1, 11]: 64 µM; Minimum inhibitory concentration, Average [1, 12]: 64.0 µM; Minimum inhibitory concentration ([1]; Bacillus cereus, triplicate 2): 64 µM; Minimum inhibitory concentration ([1]; Bacillus cereus, triplicate 3): 64 µM; Minimum inhibitory concentration [5, 14]: 512 µM; Minimum inhibitory concentration, Average [5, 15]: 512.0 µM; Minimum inhibitory concentration [5, 16]: 512 µM; Minimum inhibitory concentration [5, 17]: 512 µM; Minimum inhibitory concentration ([8]; CLSI M7-A10, triplicate 1): 8 µM; Minimum inhibitory concentration, Average [8]: 8.0 µM; Minimum inhibitory concentration ([8]; triplicate 2): 8 µM; Minimum inhibitory concentration ([8]; triplicate 3): 8 µM; Minimum inhibitory concentration ([9]; CLSI M7-A10, triplicate 1): 8 µM; Minimum inhibitory concentration, Average [9]: 8.0 µM; Minimum inhibitory concentration ([9]; triplicate 2): 8 µM; Minimum inhibitory concentration ([9]; triplicate 3): 8 µM; Minimum inhibitory concentration ([10]; CLSI M7-A10, triplicate 1): 32 µM; Minimum inhibitory concentration, Average [10]: 32.0 µM; Minimum inhibitory concentration ([10]; triplicate 2): 32 µM; Minimum inhibitory concentration ([10]; triplicate 3): 32 µM
FFYNVIKIYGNMAGRISK [Cs03] | 128 | 128.0 | 128 | 128 | 128 | 128.0 | 128 | 128 | 512 | 512.0 | 512 | 512 | 64 | 64.0 | 64 | 64 | 32 | 32.0 | 32 | 32 | Minimum inhibitory concentration [1]: 512 µM; Minimum inhibitory concentration, Average [1]: 512.0 µM; Minimum inhibitory concentration [5]: 512 µM; Minimum inhibitory concentration, Average [5]: 512.0 µM; Minimum inhibitory concentration ([8]; CLSI M7-A10, triplicate 1): 128 µM; Minimum inhibitory concentration, Average [8]: 128.0 µM; Minimum inhibitory concentration ([8]; triplicate 2): 128 µM; Minimum inhibitory concentration ([8]; triplicate 3): 128 µM; Minimum inhibitory concentration ([9]; CLSI M7-A10, triplicate 1): 128 µM; Minimum inhibitory concentration, Average [9]: 128.0 µM; Minimum inhibitory concentration ([9]; triplicate 2): 128 µM; Minimum inhibitory concentration ([9]; triplicate 3): 128 µM; Minimum inhibitory concentration ([10]; CLSI M7-A10, triplicate 1): 16 µM; Minimum inhibitory concentration, Average [10]: 16.0 µM; Minimum inhibitory concentration ([10]; triplicate 2): 16 µM; Minimum inhibitory concentration ([10]; triplicate 3): 16 µM
